For one data set, the target named is T1, iNOS (Mus musculus, UniProt P29477).
T1 construct: endogenous in cells; host or cells: Raw 264.7 murine macrophage cells (ATCC), stimulated with LPS and IFN-gamma
Nature of the data set: Attenuation of Cu(FL5) fluorescence response by iNOS inhibitor in stimulated Raw 264.7 cells. The class given is cell-based, murine.

A further data set relates to cNOS. Nature of the data set: Attenuation of Cu(FL5) fluorescence response by cNOS inhibitor in SK—N—SH cells. The class given is cell-based, human. Particulars: SK—N—SH cells pre-treated with L-NNA for 1 h, 17β-estradiol. The procedure:
(§1) FIG. 10 illustrates Cu(FL5) detection of NO produced by cNOS. (a) NO detection in SK—N—SH cells by Cu^II(FL5). Left to right: 25 min incubation of Cu(FL5) (1 μM) and 5, 10, 15, 25 min after co-treatment of Cu(FL5) (1 μM) and 17β-estradiol (100 nM). Images were taken with a Nikon Eclipse TS100 microscope after removing the DMEM media and washing the cells with PBS. Top: fluorescence images; bottom: phase contrast images. (b) Fluorescence intensity (F(t)/FCu(FL5)) from a was plotted against incubation time. (c) NO production with or without of L-NNA. Right: NO detection in cells after 10 min co-incubation of Cu(FL5) (1 μM) and 17β-estradiol (100 nM). Left: NO detection in cells pre-treated with L-NNA for 1 h before addition of Cu(FL5) and 17β-estradiol.
We investigated the ability of Cu(FL5) to detect NO produced in SK—N—SH human neuroblastoma cells under physiological conditions, since constitutive NO synthase (“cNOS”) in this cell line can be activated by estrogen to produce NO. Estrogen administration leads to an increase in the cytosolic Ca(II) concentration that alters the structure of calmodulin, which in turn activates cNOS. The NO-dependent fluorescence response, monitored after simultaneous administration of 17β-estradiol (100 nM) and Cu(FL5) (1 μM) to the cells, was complete within 5 min with a 4.0±0.6-fold increase in fluorescence (FIGS. 10a and b). […]

In data set [1] the test system is SK—N—SH human neuroblastoma cells. Put plainly: Detection of NO produced by cNOS in estradiol-stimulated SK—N—SH cells (fluorescence microscopy). The class given is cell-based. The procedure: as §1
We investigated the ability of Cu(FL5) to detect NO produced in SK—N—SH human neuroblastoma cells under physiological conditions, since constitutive NO synthase (“cNOS”) in this cell line can be activated by estrogen to produce NO. […] The NO-dependent fluorescence response, monitored after simultaneous administration of 17β-estradiol (100 nM) and Cu(FL5) (1 μM) to the cells, was complete within 5 min with a 4.0±0.6-fold increase in fluorescence (FIGS. 10a and b). […]
Firstly, Cu(FL5) visualizes NO in the estradiol-stimulated neuroblastoma cells with brighter fluorescence than DAF-2 DA (o-diaminofluorescein diacetate). […]

Data set [2] can be described thus: Fluorescence response of the sensor to NO in buffered aqueous solution.
Data set [3] in a line: Stability of nitrosated ligand at pH 7.0 (LC-MS). The class given is physicochemical. Particulars: pH 7.0 buffered aqueous solution. The text has this:
High resolution MS of FL5-^14NO and FL-^15NO were also obtained, showing m/z=600.0729 for FL5-^14NO and 601.0736 for FL5-^15NO, corresponding to [FL5+NO—H+Cl]^− (calcd. m/z 600.0729 and 601.0700).

Data set [4] is described as follows: FL5 binding of Cu(II): absorption titration with CuCl2 and fluorescence quenching. Particulars: 1 μM FL5 solution, 37° C. How it is done:
Derivatized fluorescein molecules are excellent biosensors because they excite and emit in a region of the visible spectrum that is relatively free of interference. We prepared the fluorescein-based ligand FL5 (FIG. 7) by reacting 7′-chloro-4′-fluorescein-carboxaldehyde with 8-aminoquinaldine. We generated the Cu(II) fluorescein-based NO probe Cu(FL5) (FIG. 4) in situ reacting FL5 (prepared as described below) with CuCl2 in a 1:1 ratio in buffered aqueous solution (50 mM PIPES, pH 7.0, 100 mM KCl). […] A Job's plot was constructed to evaluate the nature of the FL5:Cu(II) complex by following the UV-vis absorption spectral change at 512 nm in pH 7.0 buffered solution. A break at 0.5 indicated the formation of a 1:1 complex.
The fluorescence of a 1 μM FL5 solution was diminished by 18±3% upon introduction of an equimolar quantity of CuCl2 at 37° C. Addition of excess NO to a buffered aqueous Cu(FL5) solution led to an immediate 11.2±1.5-fold increase in fluorescence (FIG. 8). […] The lower detection limit for NO is 5 nM.

The test system of data set [5] is Raw 264.7 murine macrophage. Put plainly: Detection of NO produced by iNOS in LPS and IFN-γ stimulated Raw 264.7 cells (fluorescence microscopy). The class given is cell-based. The following applies: 12 h incubation period.

Results on six molecules are retold here after patent publication US8709743B2, “Inhibitors of bacterial nitric oxide synthase, and related screening methods” (Massachusetts Institute of Technology, priority 2007, dated 2014).

T1 sequence (P29477 whole entry): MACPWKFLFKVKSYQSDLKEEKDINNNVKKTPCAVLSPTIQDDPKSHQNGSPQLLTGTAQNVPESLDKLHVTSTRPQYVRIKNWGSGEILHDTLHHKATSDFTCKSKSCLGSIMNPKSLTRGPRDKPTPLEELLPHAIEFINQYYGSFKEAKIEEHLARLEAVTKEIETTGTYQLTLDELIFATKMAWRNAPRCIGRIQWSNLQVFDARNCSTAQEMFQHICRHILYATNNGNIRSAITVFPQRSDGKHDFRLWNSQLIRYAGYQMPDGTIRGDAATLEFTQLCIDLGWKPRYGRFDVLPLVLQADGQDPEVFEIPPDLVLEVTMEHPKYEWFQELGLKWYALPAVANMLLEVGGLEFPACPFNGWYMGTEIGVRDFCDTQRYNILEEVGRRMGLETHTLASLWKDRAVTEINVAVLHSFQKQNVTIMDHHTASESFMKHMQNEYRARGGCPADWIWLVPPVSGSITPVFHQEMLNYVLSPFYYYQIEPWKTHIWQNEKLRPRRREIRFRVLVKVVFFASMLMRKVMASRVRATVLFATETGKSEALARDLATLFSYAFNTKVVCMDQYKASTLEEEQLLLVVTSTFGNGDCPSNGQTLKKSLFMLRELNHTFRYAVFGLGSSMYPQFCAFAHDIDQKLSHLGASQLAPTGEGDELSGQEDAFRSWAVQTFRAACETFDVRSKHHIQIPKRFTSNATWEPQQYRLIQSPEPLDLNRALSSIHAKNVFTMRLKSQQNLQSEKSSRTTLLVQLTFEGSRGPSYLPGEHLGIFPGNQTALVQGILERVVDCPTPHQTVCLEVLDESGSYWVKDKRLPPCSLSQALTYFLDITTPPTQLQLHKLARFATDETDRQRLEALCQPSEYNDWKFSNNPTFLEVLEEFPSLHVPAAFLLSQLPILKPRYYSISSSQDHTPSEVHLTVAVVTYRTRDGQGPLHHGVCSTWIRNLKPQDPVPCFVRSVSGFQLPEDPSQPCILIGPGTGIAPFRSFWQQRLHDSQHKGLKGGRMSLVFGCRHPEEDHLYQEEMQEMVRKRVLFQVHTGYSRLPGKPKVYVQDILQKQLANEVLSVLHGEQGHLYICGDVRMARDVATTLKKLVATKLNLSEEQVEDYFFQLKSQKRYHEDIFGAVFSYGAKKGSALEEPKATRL

`CNC(=N)NCCC[C@H](N)C(=O)O` [L-NMA, N^G-methyl-L-arginine]: on iNOS, the “Cu(FL5) fluorescence response in the presence of iNOS inhibitor” value is listed as “notably weaker fluorescence response”.
Take `N=C(NCCC[C@H](N)C(=O)O)N[N+](=O)[O-]` [L-NNA, N^G-nitro-L-arginine]: the “Cu(FL5) fluorescence response in the presence of cNOS inhibitor” value in the data set with cNOS is listed as “notably weaker fluorescence response”.
For the molecule `CC(=O)Oc1ccc2c(c1)Oc1cc(OC(C)=O)ccc1C21OC(=O)c2cc(N)c(N)cc21` [DAF-2 DA, o-diaminofluorescein diacetate, reference compound], in data set [1] (30 min after activation of cNOS), the “fluorescence change of treated cells after activation of cNOS” value is recorded as “only a slight fluorescence increase”.
Turning to “o-diaminofluorescein [DAF-2, reference compound]”, in data set [2] (over a period of 1 h), the “fluorescence in the presence of NO and the absence of O2” value is “unchanged”.
For the molecule `Cc1ccc2cccc(N(Cc3c(O)ccc4c(-c5ccccc5C(=O)O)c5cc(Cl)c(=O)cc-5oc34)N=O)c2n1` [FL5-NO, 2-{2-chloro-6-hydroxy-5-[((2-methylquinolin-8-yl)(nitroso)amino)-methyl]-3-oxo-3H-xanthen-9-yl}-benzoic acid], the “stability at pH 7.0” value in data set [3] is on record as “stable for several days”.
For `Cc1ccc2cccc(NCc3c(O)ccc4c(-c5ccccc5C(=O)O)c5cc(Cl)c(=O)cc-5oc34)c2n1` [FL5, 2-{2-chloro-6-hydroxy-5-[(2-methyl-quinolin-8-ylamino)-methyl]-3-oxo-3H-xanthen-9-yl}-benzoic acid], the “fluorescence diminished upon introduction of an equimolar quantity of CuCl2” value in data set [4] is recorded as 18±3%. The “increase in fluorescence when treated with excess NO over 30 min” value in data set [2] (no Cu(II): copper-free FL5 or FL5 with Cu(I)) stood at 1.5±0.2 fold. Besides, the “fluorescence change in stimulated SK—N—SH cells in the absence of Cu(II) ion” value in data set [1] (over a period of 25 min) is “no fluorescence increase”. Further, in data set [5], the “turn-on fluorescence in stimulated Raw 264.7 cells without Cu(II) ion” value is “turn-on fluorescence emission was not observed”.
